Data on 35 molecules can be found in patent US7994318B2, “Coumarin derivatives useful as TNFα inhibitors” (Chugai Seiyaku Kabushiki Kaisha, priority 2000, dated 2011).

This experiment concerns TNFα. The experiment is described as follows: In vitro assay: TNFα ELISA of supernatants of LPS-stimulated human PBMC. Type of experiment: cell-based. The settings on record: human PBMC pretreated with drug 60 min, stimulated with LPS (E. coli O55:B5) 100 ng/mL, overnight culture, TNFα in supernatant by ELISA, read-out: 50% Inhibition of TNFα level (IC50). The method, then:
Enzyme-linked immunosorbent assays (ELISA) for TNFα can be performed in a conventional manner (Blood, 75, 40-47 (1990)). Human PBMC are isolated from heparinized venous blood obtained from healthy volunteers by Ficoll-Hypaque density centrifugation. The cells are cultured in RPMI1640 medium supplemented with 5% heat-inactivated fetal calf serum and antibiotics. PBMC (5×10E5 cells/mL) in 0.2 mL aliquot are pretreated with drugs in DMSO for 60 min at 37° C. in 96 well round-bottomed tissue culture plates. Thereafter, PBMC in the presence or absence of compound are stimulated with 1 mg/mL LPS from E. coli O55:B5 at a final concentration of 100 ng/mL. After overnight culture, the supernatants are harvested and assayed immediately for TNFα levels from each well. The concentration of TNFα in the supernatant is determined by human TNFα ELISA Kit according to the manufacture's directions.
Active compounds are characterized by the concentration of the compound that caused 50% inhibition of TNFα level (IC50).
For orientation: In an ELISA, binding on a coated surface is turned into a signal by an enzyme label.

Structures are written as SMILES. Read-outs that look alike come from different tables or passages of the source.

For `CN(C)C(=O)Oc1ccc2c(-c3ccccc3)c(Cc3ccc(F)cc3)c(=O)oc2c1` [Example 14-84], the half-maximal inhibitory concentration (IC50) worked out at 1.67 µM. Turning to `CCOC(=O)CCC(=O)Nc1cccc(Cc2c(C)c3cc(Cl)c(Oc4ncccn4)cc3oc2=O)c1` [Example 20-28], the 50% inhibitory concentration (IC50) amounted to 1.2 µM. Turning to `Cc1c(Cc2ccccc2)c(=O)oc2cc(OC(=O)N(C)C)c(I)cc12` [Example 14-12], the IC50 amounted to 0.06 µM. With `Cc1c(Cc2cccnc2)c(=O)oc2cc(Oc3ncccn3)c(Cl)cc12` [Example 17, 2-oxo-2H-3-(3-pyridylmethyl)-4-methyl-6-chloro-7-(pyrimidin-2-yloxyl)-1-benzopyrane], the concentration for half-maximal inhibition (IC50) (Homo sapiens, PBMC) was 50 µM. Take `CCc1c(Cc2cccc(NC(C)=O)c2)c(=O)oc2cc(Oc3ncccn3)c(Cl)cc12` [Example 20-57]: the IC50 was 3.6 µM. Turning to `COc1cc2c(C)c(Cc3ccccc3)c(=O)oc2cc1OC(=O)N(C)C` [Example 3, dimethyl carbamic acid 2-oxo-2H-3-benzyl-4-methyl-6-methoxy-1-benzopyran-7-yl ester], the 50% inhibitory concentration (IC50) (Homo sapiens, PBMC) came to 0.58 µM.

In the case of `CCc1c(Cc2cccc(NC(C)=O)c2)c(=O)oc2cc(Oc3nccs3)ccc12` [Example 22-8], the IC50 was less than 0.6 µM.

`Cc1c(Cc2cccc(NS(=O)(=O)C(C)C)c2)c(=O)oc2cc(Oc3ncccn3)c(Cl)cc12` [Example 20-47]: the IC50 was 0.31 µM. As for `Cc1c(Cc2ccccc2)c(=O)oc2cc(OC(=O)N(C)C)c(Cl)cc12` [Example 2, dimethyl carbamic acid 2-oxo-2H-3-benzyl-4-methyl-6-chloro-1-benzopyran-7-yl ester], the half-maximal inhibitory concentration (IC50) (Homo sapiens, PBMC) came to 0.09 µM. Consider `CC(=O)NCC(=O)Nc1cccc(Cc2c(C)c3cc(Cl)c(Oc4ncccn4)cc3oc2=O)c1` [Example 20-30], for which the IC50 came out at 5.8 µM.

As to `CCc1c(Cc2ccncc2)c(=O)oc2cc(OC(=O)N(C)C)ccc12` [Example 14-80], the half-inhibitory concentration (IC50) was found to be 2.4 µM. `Cc1c(Cc2cccnc2)c(=O)oc2c(C)c(OC(=O)N(C)C)ccc12` [Example 14-33]: the IC50 is 8.4 µM. As for `Cc1c(Cc2ccccc2)c(=O)oc2cc(OC(=O)N(C)C)ccc12` [Example 1, dimethyl carbamic acid 2-oxo-2H-3-benzyl-4-methyl-1-benzopyran-7-yl ester], for the setting “Homo sapiens, PBMC”, the IC50 was found to be 0.36 µM.

As for `COc1cccc(Cc2c(C)c3ccc(OC(=O)N(C)C)cc3oc2=O)c1` [Example 14-45], the half-maximal inhibitory concentration (IC50) was determined as 3.2 µM. `CCc1c(Cc2cccc(N)c2)c(=O)oc2cc(Oc3ncccn3)c(Cl)cc12` [Example 20-56]: the IC50 was 7.8 µM. Turning to `Cc1c(Cc2ccc(S(C)(=O)=O)cc2)c(=O)oc2cc(OC(=O)N(C)C)ccc12` [Example 14-43], the 50% inhibitory concentration (IC50) worked out at 6.6 µM. The same measure, in the same setting: the same measure for `CCc1c(Cc2cccc([N+](=O)[O-])c2)c(=O)oc2cc(Oc3ncccn3)cc(F)c12` [Example 20-58]: 11.9 µM. With `CCOC(=O)CC(=O)Nc1cccc(Cc2c(C)c3cc(Cl)c(Oc4ncccn4)cc3oc2=O)c1` [Example 20-29], the half-maximal inhibitory concentration (IC50) is less than 0.6 µM.

`Cc1c(Cc2cccc(NC(=O)CCNC(=O)OCc3ccccc3)c2)c(=O)oc2cc(Oc3ncccn3)c(Cl)cc12` [Example 20-32]: the IC50 is 11.4 µM. Take `CCOC(=O)CC(=O)Nc1cccc(Cc2c(C)c3ccc(Oc4nccs4)cc3oc2=O)c1` [Example 22-6]: the IC50 stood at 0.25 µM. On to `Cc1c(Cc2ccccc2)c(=O)oc2cc(C(F)(F)C(=O)N(C)C)ccc12` [Example 24, 2-oxo-3-benzyl-4-methyl-7-(N,N-dimethylaminocarboxy-difluoromethyl)-1H-benzopyrane], for which, for the setting “Homo sapiens, PBMC”, the IC50 is 10.4 µM. For the molecule `CCc1c(Cc2cccc(N)c2)c(=O)oc2cc(Oc3nccs3)ccc12` [Example 22-7], the IC50 amounted to 4.2 µM.

For the molecule `CCOC(=O)CC(=O)Nc1cccc(Cc2c(C)c3c(F)cc(OC(=O)N(C)C)cc3oc2=O)c1` [Example 14-8], the 50% inhibitory concentration (IC50) is 0.14 µM. Still for that read-out and setting: for `Cc1c(Cc2cccnc2)c(=O)oc2cc(OC(=O)N(C)C)ccc12` [Example 14-31] the value was 2.2 µM; for `CCNC(=O)Nc1cccc(Cc2c(C)c3ccc(OC(=O)N(C)C)cc3oc2=O)c1` [Example 14-69], 2.4 µM; for `CCc1c(Cc2cccc(NC(C)=O)c2)c(=O)oc2cc(Oc3ncccn3)ccc12` [Example 20-54], 6.7 µM. As to `CCCS(=O)(=O)Nc1cccc(Cc2c(C)c3cc(Cl)c(Oc4ncccn4)cc3oc2=O)c1` [Example 20-46], the half-inhibitory concentration (IC50) worked out at 0.96 µM.

With `Cc1c(Cc2ccccc2)c(=O)oc2cc(Oc3ncccn3)cc(F)c12` [Example 20-14], the 50% inhibitory concentration (IC50) stood at 9.7 µM. For `CCc1c(Cc2cccc(NC(C)=O)c2)c(=O)oc2cc(Oc3ncccn3)cc(F)c12` [Example 20-60], the IC50 was 4.4 µM. Regarding `Cc1c(Cc2cccc(N)c2)c(=O)oc2cc(Oc3nccs3)ccc12` [Example 22-4], the IC50 is 6 µM. As for `Cc1c(Cc2ccccc2)c(=O)oc2cc(Oc3nccs3)ccc12` [Example 21, 2-oxo-3-benzyl-4-methyl-7-(thiazol-2-yloxyl)-2H-1-benzopyrane], the 50% inhibitory concentration (IC50) is 10.5 µM. Besides, under “Homo sapiens, PBMC”, the half-inhibitory concentration (IC50) worked out at 9.1 µM. With `CCOC(=O)CC(=O)Nc1cccc(Cc2c(C)c3c(F)cc(Oc4ncccn4)cc3oc2=O)c1` [Example 20-40], the 50% inhibitory concentration (IC50) was less than 0.6 µM. Still for that read-out and setting: for `Cc1c(Cc2cccc(N)c2)c(=O)oc2cc(OC(=O)N(C)C)cc(F)c12` [Example 14-6] the value was 1.6 µM. On to `CC(=O)Nc1cccc(Cc2c(C)c3ccc(Oc4ncccn4)cc3oc2=O)c1` [Example 20-20], for which the IC50 was 6.6 µM.

For `Cc1c(Cc2ccncc2)c(=O)oc2cc(OC(=O)N(C)C)ccc12` [Example 14-32], the half-maximal inhibitory concentration (IC50) amounted to 1.3 µM.

Usually IC50 stands for the concentration that inhibits the measured activity by half.
